Test results taken from patent US20080214508A1, “Methods of Administering Water-Soluble Prodrugs of Propofol” (MGI GP, INC., priority 2004, published 2008).
“And” between values parts separate entries of the source, which are not always exact repeats. Identical values can stand only once. “Also recorded” adds a separate entry of the source.

Tests used:
human subjects = conditions: intravenous infusions; cited from earlier work
[1] = Plasma propofol pharmacokinetics in Beagle dogs after intravenous, subcutaneous or rectal prodrug; assay type: in vivo
Description: Upon administration, the test prodrug is converted in the body into propofol, its pharmacologically active metabolite. The pharmacokinetic profile, i.e. the blood plasma concentration of propofol derived from the test prodrug, was assessed in a separate experiment. Three male Beagle dogs (8.7-10.9 kg) received intravenous, subcutaneous, or rectal doses of the prodrug (see Tab. 1, below). Blood samples were taken at pre-dose, 2 (only for intravenous and subcutaneous), 5, 15, 30 minutes, 1, 1.5, 2, 3, 4, 6, and 8 hrs after administration of the test prodrug. Blood samples were centrifuged to obtain plasma and stored frozen until analysis. The outcome of this experiment is depicted in the following Table I: […]

[2] = anesthetic induction doses; cited from earlier work
[3] = rats, intravenous infusion over 10 minutes, 5-40 mg/kg
[4] = Beagle dog 46, rectal, 16.8 mg/kg prodrug, first suppository expelled, second given, nominal dose used
[5] = Beagle dog 47, rectal, 15.7 mg/kg prodrug
[6] = Beagle dog 48, rectal, 18.4 mg/kg prodrug
[7] = Beagle dogs, i.v., 16 mg/kg prodrug, average of 3 dogs
[8] = Beagle dogs, i.v., 16 mg/kg prodrug, individual dogs 46, 47, 48, disodium salt, 16 mg/kg
[9] = Beagle dogs, rectal, 15.7-18.4 mg/kg prodrug, average of 3 dogs
[10] = Beagle dogs, subcut., 16 mg/kg prodrug, average of 3 dogs
[11] = Beagle dogs, subcut., 16 mg/kg prodrug, individual dogs 46, 47, 48, disodium salt, 16 mg/kg

Description for Sprague-Dawley rats: FIG. 2 illustrates the sedative/anesthetic effects of various doses of the experimental compound when administered via the intravenous route.
For comparison, an additional two animals received a subcutaneous injection of propofol (80 mg/kg) in its commercially available liquid emulsion formulation. For further comparison, the above-described pharmacological effects of subcutaneous administration of the tested prodrug were compared with those caused by an intravenous infusion: Under halothane anesthesia, young adult rats received femoral vein catheters which were exteriorized and attached to a liquid swivel via a protectant spring. About 20 minutes after catheterization, and after full behavioral recovery from halothane anesthesia, each animal was attached to an electronic infusion pump and was administered vehicle, or 5, 10, 20, 30, or 40 mg/kg of the test prodrug (n=2 per dose) in 1 ml total volume by gradual constant-rate intravenous infusion over 10 minutes. Behavioral rating as described above began immediately following the end of infusion.

In the case of CC(C)c1cccc(C(C)C)c1OCOP(=O)([O-])[O-].[Na+].[Na+] [O-phosphonooxymethyl propofol disodium salt], the “potency of plasma propofol in suppressing EEG activity and causing a hypnotic effect, versus plasma propofol from infusions of propofol itself” value (human subjects) is listed as “significantly more potent”, the “duration of effects relative to subcutaneous administration” value (Sprague-Dawley rats; [3]) is listed as “shorter duration compared to subcutaneous administration” and the “onset of sedated behavior relative to subcutaneous injection” value (Sprague-Dawley rats; [3]) is listed as “even more rapidly than after subcutaneous-injection”. For the same compound, the “onset of sedated behavior after dosing” value (Sprague-Dawley rats; rats, single subcutaneous injection, 50-300 mg/kg) was 5 to 10 min, the duration of sedation (Sprague-Dawley rats; rats, subcutaneous, 50 mg/kg) was 1 to 1.5 h and the “sedative effect compared to vehicle” value (Sprague-Dawley rats; rats, subcutaneous, 50 mg/kg) was “mild to moderate sedation”. The “behavioral effect following sedation” value (Sprague-Dawley rats; rats, subcutaneous, 100, 200 and 300 mg/kg dose groups) was “loss of consciousness”, the “duration of loss of consciousness” value (Sprague-Dawley rats; rats, subcutaneous, two highest dose groups (200 and 300 mg/kg)) was “more than two hours” and the “time after administration until plateau effect is reached” value (Sprague-Dawley rats; subcutaneous administration) was 10 to 15 min. For the same compound, the “duration for which plateau effect is maintained” value (Sprague-Dawley rats; subcutaneous administration, depending on dose) was “up to about thirty minutes to two hours or longer”, the “AUCLast of plasma propofol” value [1, 4] was 471.4 ng·h/mL and the “Cmax of plasma propofol” value [1, 4] was 220 ng/mL. For the same compound, the “Tmax of plasma propofol” value [1, 4] was 60 min, the “AUCLast of plasma propofol” value [1, 5] was 204.5 ng·h/mL and the “Cmax of plasma propofol” value [1, 5] was 170 ng/mL. For the same compound, the “Tmax of plasma propofol” value [1, 5] was 15 min, the “AUCLast of plasma propofol” value [1, 6] was 46.7 ng·h/mL and the “Cmax of plasma propofol” value [1, 6] was 90 ng/mL. The “Tmax of plasma propofol” value [1, 6] was 15 min, the “AUCLast of plasma propofol” value [1, 7] was 1728 ± 256.0 ng·h/mL and the “Cmax of plasma propofol” value [1, 7] was 3840 ± 1190 ng/mL. For the same compound, the “Tmax of plasma propofol” value [1, 7] was 1.8 min, the “Tmax of plasma propofol” value ([1]; Beagle dogs, i.v., 16 mg/kg prodrug, individual dogs 46, 47, 48) was 1.8 min and the “AUCLast of plasma propofol” value [1, 8] was 1776 ng·h/mL and 1956 ng·h/mL and 1451 ng·h/mL. The “Cmax of plasma propofol” value [1, 8] was 2570 ng/mL and 4930 ng/mL and 4010 ng/mL, the “AUCLast of plasma propofol” value [1, 9] was 240.9 ± 214.7 ng·h/mL and the “Cmax of plasma propofol” value [1, 9] was 160 ± 60 ng/mL. The “Tmax of plasma propofol” value [1, 9] was 30 ± 25.8 min, the “AUCLast of plasma propofol” value [1, 10] was 1322 ± 557.7 ng·h/mL and the “Cmax of plasma propofol” value [1, 10] was 390 ± 90 ng/mL. The “Tmax of plasma propofol” value [1, 10] was 60 ± 30 min, the “AUCLast of plasma propofol” value [1, 11] was 1781 ng·h/mL and 1484 ng·h/mL and 701.6 ng·h/mL and the “Cmax of plasma propofol” value [1, 11] was 460 ng/mL and 420 ng/mL and 290 ng/mL. For the same compound, the “Tmax of plasma propofol” value [1, 11] was 90 min and 60 min and 30 min.
For CC(C)c1cccc(C(C)C)c1O [propofol, 2,6-diisopropylphenol], the “patients with respiratory consequences, including reduction in tidal volume and apnea” value [2] is listed as “up to 83%” and the sedative effect (Sprague-Dawley rats; rats, subcutaneous, 80 mg/kg, commercially available liquid emulsion formulation) is listed as “only very mild or no sedative effects; also recorded: none or only very mild sedation”.
